Laboratory results taken from PMC9495004, “In Vitro Biological Activity of Natural Products from the Endophytic Fungus Paraboeremia selaginellae against Toxoplasma gondii” (Antibiotics, 2022).
≈ marks a conversion by molar mass, not a printed value. Like-named read-outs stand apart in the source and are kept apart here.

What was measured:
M. tuberculosis H37Rv = experiment: Minimal inhibitory concentration, resazurin reduction assay, M. tuberculosis; assay type: cell-based, Mycobacterium tuberculosis; conditions: for MIC90: Mycobacterium tuberculosis, H37RV, 120 h, read-out: MIC90 M. tuberculosis H37Rv
[1] = MTT cell viability assay against Hs27 cells; assay type: cell-based; conditions: human, Hs27 fibroblast cells, >100 µM indicates no activity, read-out: CC50 against human fibroblasts Hs27
Procedure: Figure 4 Effect of the natural products on the metabolic activity of Hs27 cells via MTT assay. Hs27 cells were plated in 96-well plates and grown to confluence prior to incubation at 37 °C for 24 h with the natural products in the concentration range of […]. The cultures were incubated with 10 μL of the 12 mM MTT stock solution for approximately 4 h. Afterwards, 100 μL of SDS dissolved in HCl was added to each well and incubated again for 4 h at 37 °C. Finally, the absorbance was measured at 570 nm by spectrophotometry. Values shown in (A–F) represent the means of three independent experiments each done in duplicate (n = 6) ± SEM. Cytotoxicity in Hs27 cells of NK-A 17e233 (A); 1,2-benzenediol, 3-(4-hydroxy-2-methoxy-6-methylphenoxy)-5-methyl-(ACI) (B); cyperin (C); ES-242-1 (D); ES-242-3 (E); 5S,6S-phomalactone (F).
The 3-[4,5-dimethylthiazole-2-yl]-2,5-diphenyltetrazolium bromide (MTT) test was used to assess cell viability of the isolated active compounds against Hs27 cells. The MTT assay is a colorimetric reaction based on the enzymatic reduction of MTT to MTT-formazan, which is catalyzed by mitochondrial succinate dehydrogenase.
In brief, Hs27 cells were seeded 96-well plates in a monolayer in Iscove’s modified Dulbecco’s medium (Gibco–Thermo Fisher Scientific, Braunschweig, Germany) and incubated at 37 °C with different concentrations of the tested natural products (1.56, 3,12, 6.25, 12,5, 25, 50, 100 µM) in the culture media. Staurosporine ([…], 0.25, 0.5, 1 µM), a well-known cytotoxicity-inducing kinase inhibitor [40], untreated Hs27 cells, and DMSO were used as controls. After 24 h, the medium of the culture was removed and replaced with 100 μL of DMEM without red phenol (Gibco–Thermo Fisher Scientific, Braunschweig, Germany) plus 10% heat-inactivated fetal bovine serum (Invitrogen, Karlsruhe, Germany), and […] 2-mercaptoethanol (Gibco–Thermo Fisher Scientific, Braunschweig, Germany). Afterwards, the 12 mM MTT solution was added to each well according to the manufacturer’s instruction (Vybrant MTT Cell Proliferation Assay Kit, Thermo Fisher Scientific, Braunschweig, Germany). The OD value of each well was assayed at the wavelength of 570 nm on a microplate reader (TECAN Sunrise, Männedorf, Switzerland). The 50% cytotoxic concentration (CC50 values) of the tested natural products on Hs27 cells was calculated and all data were analyzed using Prism GraphPad version 9.2.0 software.

[2] = test system: Huh-7 (Human liver carcinoma cell line); experiment: Resazurin cytotoxicity assay, Huh-7; assay type: cell-based; conditions: for IC50: Homo sapiens, read-out: Mean IC50 Huh-7
Procedure: (§1) Figure 5 Effect of the natural products on the viability of THP-1, Huh-7, and HEK-293 cells. Cytotoxic effect of NK-A17e233 (A); 1,2-benzenediol,3-(4-hydroxy-2-methoxy-6-methylphenoxy)-5-methyl-(ACI) (B); cyperin (C); ES-242-1 (D); ES-242-3 (E); 5S,6S-phomalactone (F) against the human cell lines THP-1, Huh-7, and HEK-293 as determined by resazurin assay. 100% growth control DMSO, 0% growth control cycloheximide. Values represent the means of triplicates ± SEM.
(§2) The cytotoxicity study was carried out using the THP-1 (human monocytic leukemia cell line), Huh-7 (Human liver carcinoma cell line), and HEK293 (human embryonic kidney cell line) cell lines as described before. The THP-1 cells were cultured using RPMI 1640 medium containing 2 mM L-glutamine and supplemented with 10% fetal calf serum (FCS) and 1% sodium pyruvate. Huh-7 cells were cultured using a 1:1 mixture of RPMI 1640 medium containing 2 mM L-glutamine and 10% FCS medium and DMEM containing 10% FCS and 1% sodium pyruvate. The HEK-293 cells were cultured with DMEM including 2 mM L-glutamine and supplemented with 1% NE amino acids, 1% 1.0 mM sodium pyruvate and 10% FCS. All three cell lines were then incubated at 37 °C in an atmosphere of 5% CO2 under humid conditions for 2 weeks while renewing the medium twice weekly. Subsequently, the cells were suspended and adjusted to a density of 2 × 10^5 cells/mL. In a 96-well flat-bottom microtiter plate, the cells were adjusted to a total volume of 100 μL containing 2-fold serial dilutions of the tested compounds A–F ranging from 100 to 1.56 μM. Cycloheximide (4, 2, 1, 0.5, 0.25, 0.13, 0.06, 0.03 µg/mL) was used as a positive control. After an incubation time of 48 h at 37 °C in an atmosphere of 5% CO2 under humid conditions, 10 μL resazurin solution (100 μg/mL) was added to each well and incubated for another 4 h. The fluorescence was then quantified using a Tecan Infinite 200pro microplate reader (excitation 540 nm, emission 590 nm). The residual growth was calculated relative to non-inoculated conditions (0% growth) and controls treated with DMSO (100% growth).

P. aeruginosa ATCC 87110 = experiment: Minimal inhibitory concentration assay (BacTiter Glo), P. aeruginosa; assay type: cell-based; conditions: Pseudomonas aeruginosa, read-out: MIC90 P. aeruginosa ATCC 87110
[3] = test system: THP-1 (human monocytic leukemia cell line); experiment: Resazurin cytotoxicity assay, THP-1; assay type: cell-based; conditions: for IC50: Homo sapiens, read-out: Mean IC50 THP1
Procedure: as §1, §2

T. gondii strain ME49 = experiment: T. gondii proliferation assay (3H-uracil incorporation); assay type: cell-based, Toxoplasma gondii
[4] = test system: HEK293 (human embryonic kidney cell line); experiment: Resazurin cytotoxicity assay, HEK-293; assay type: cell-based; conditions: for IC50: Homo sapiens, read-out: Mean IC50 HEK-293
Procedure: as §1, §2

S. aureus ATCC 700699 = experiment: Minimal inhibitory concentration assay (BacTiter Glo), S. aureus; assay type: cell-based; conditions: Staphylococcus aureus, read-out: MIC90 S. aureus ATCC 700699
Plasmodium falciparum = conditions: cited from earlier work
[5] = 5 days, resazurin, >100 µM indicates no activity
[6] = Huh-7, resazurin assay, 48 h, >100 µM indicates no activity
[7] = ATCC87110, 24 h, >100 µM indicates no activity
[8] = THP-1, resazurin assay, 48 h, >100 µM indicates no activity
[9] = Toxoplasma gondii, HS27, Hs27 host cells, 48 h treatment, 3H-uracil incorporation, read-out: IC50 against T. gondii strain ME49 (proliferation)
[10] = HEK293, resazurin assay, 48 h, >100 µM indicates no activity
[11] = ATCC700699, 24 h, >100 µM indicates no activity
[12] = Toxoplasma gondii, HS27, read-out: IC50 against T. gondii strain ME49 (proliferation)
[13] = reported activity, read-out: IC50 against P. falciparum
[14] = resazurin assay, 48 h, >100 µM indicates no activity
[15] = Hs27 host cells, 48 h treatment, 3H-uracil incorporation

| Structure (SMILES) | MIC90 M. tuberculosis H37Rv (M. tuberculosis H37Rv; [5]) | MIC90 (M. tuberculosis H37Rv; [5]) | CC50 at 24 h [1] | IC50 [2, 6] | MIC90 (P. aeruginosa ATCC 87110; [7]) | IC50 [3, 8] | IC50 (T. gondii strain ME49; [9]) | IC50 [4, 10] | MIC90 (S. aureus ATCC 700699; [11]) | IC50 (T. gondii strain ME49; [12]) | also measured |
| --- | --- | --- | --- | --- | --- | --- | --- | --- | --- | --- | --- |
| COc1cc(O)cc(C)c1Oc1cc(C)cc(O)c1O [B, 3-(4-Hydroxy-2-methoxy-6-methylphenoxy)-5-methylbenzene-1,2-diol] | no inhibitory effect | > 100 µM | > 100 µM | > 100 µM | > 100 µM | > 100 µM | 19.4 µM | > 100 µM | > 100 µM |  | IC50 (T. gondii strain ME49; Hs27 host cells, 48 h treatment, 3H-uracil incorporation, read-out: IC50 against T. gondii strain ME49 (proliferation)): 22.2 µM |
| COc1cc(C)c(Oc2cc(C)cc(O)c2O)c(O)c1 [Compound A, NK-A 17e233] | no inhibitory effect | > 100 µM | > 100 µM | > 100 µM | > 100 µM | > 100 µM | 5.75 µM | > 100 µM | > 100 µM |  |  |
| COc1cc(C)c(Oc2cc(C)cc(O)c2)c(O)c1 [Compound C, cyperin] | no inhibitory effect |  | > 100 µM |  |  |  |  |  |  | 27.2 µM | MIC90 (M. tuberculosis H37Rv): > 100 µM; IC50 ([2]; Huh-7, 48 h): > 100 µM; MIC90 (P. aeruginosa ATCC 87110; ATCC87110, 24 h): > 100 µM; IC50 ([3]; THP-1, 48 h): > 100 µM; IC50 ([4]; HEK293, 48 h): > 100 µM; MIC90 (S. aureus ATCC 700699; ATCC700699, 24 h): > 100 µM |
| COc1cc(OC)c2c(O)c3c(c(-c4c5c(c(O)c6c(OC)cc(OC)cc46)CO[C@@H](C)[C@H]5OC(C)=O)c2c1)C[C@@H](C)OC3 [D, ES-242-1] |  | 50 µM (≈ 30.2 µg/mL) | > 100 µM | > 100 µM | > 100 µM | > 100 µM | 7.38 µM | 93.8 µM | > 100 µM |  | IC50 (Plasmodium falciparum; [13]): 8.44 µM |
| COc1cc(OC)c2c(O)c3c(c(-c4c5c(c(O)c6c(OC)cc(OC)cc46)CO[C@@H](C)[C@H]5OC(C)=O)c2c1)C(O)[C@@H](C)OC3 (stereo partly shown) [E, ES-242-3] |  | 100 µM (≈ 62.1 µg/mL) | > 100 µM | 13 µM | > 100 µM | 21.9 µM | 18 µM | 16.9 µM | > 100 µM |  | Mean IC50 Huh-7 [2, 14]: moderate cytotoxic activity; Mean IC50 THP1 [3, 14]: moderate cytotoxic activity; Mean IC50 HEK-293 [4, 14]: moderate cytotoxic activity; IC50 (Plasmodium falciparum; [13]): 13.2 µM |
| C/C=C/[C@@H]1OC(=O)C=C[C@@H]1O [F, 5S,6S-phomalactone] | no inhibitory effect |  | 81 µM | 100 µM | 100 µM (≈ 15.4 µg/mL) | 24.3 µM |  | 66.9 µM | > 100 µM | 5.13 µM | MIC90 (M. tuberculosis H37Rv): > 100 µM; Mean IC50 Huh-7 [2, 14]: no or weak cytotoxic effects; Mean IC50 HEK-293 [4, 14]: no or weak cytotoxic effects; IC50 (Plasmodium falciparum; previous report, read-out: IC50 against Plasmodium falciparum): 84.3 µM |
| Cc1cc(O)c(C)c(=O)o1 [G, methyltriaceticlactone] | no inhibitory effect | > 100 µM |  |  | > 100 µM |  |  |  | > 100 µM |  | IC50 against T. gondii strain ME49 (proliferation) (T. gondii strain ME49; [15]): Not active |
| CCC(C)CC(C)/C=C(C)/C=C/CC(C)C(O)C(C)/C=C(C)/C=C/C(O)C(C)(C)c1cc(O)c([C@H]2O[C@@H](CO)C[C@@H](O)[C@@H]2O)c(=O)o1 (stereo partly shown) [H, S 39163/F-1] | no inhibitory effect | > 100 µM |  |  | > 100 µM |  |  |  | > 100 µM |  | IC50 against T. gondii strain ME49 (proliferation) (T. gondii strain ME49; [15]): Not active |
| CCc1nc(N)nc(N)c1-c1ccc(Cl)cc1 [pyrimethamine, reference compound] |  |  | 44 µM |  |  |  |  |  |  | 0.06 µM |  |
